Source: patent US5869023A, “Composition for MRI comprising both a positive and a negative contrast agent” (Nycomed Imaging AS, priority 1993, dated 1999)

Legend:
[1] = test system: infarcted and non-ischemic myocardium; assay: MR imaging of excised pig hearts, double contrast (Example 5); assay type: in vivo; conditions: T1- and proton density-weighted; vs no contrast agent or Dy-DTPA-BMA only
Procedure: The total occlusion time was thus 6 hours.
Following sacrifice, the hearts were extirpated and rinsed in isotonic saline to remove remaining blood. The hearts were examined ex vivo at ambient temperature in the MR equipment and then cut into approximately 8 mm thick transverse slices and soaked for 10-20 minutes in a 1% aqueous solution of triphenyltetrazolium chloride (TTC) at 37° C. TTC stains non-ischemic myocardium brick red. The slices were inspected visually for unstained areas of infarction.
MR images were obtained in an identical manner to that described in Example 4.
In the transverse images, three ROI's were placed in infarcted myocardium. Four ROI's were placed in non-ischemic myocardium, two in the anterior wall and two in the posterior wall of the left ventricle. The mean signal intensity (S) was measured in each ROI. One ROI was placed anterior to the heart in an area free from visible artefacts, in order to measure the standard deviation (SD) of the background signal. These measurements were used to calculate the contrast (C) and contrast-to-noise (C/N) ratios between infarcted (inf) and non-ischemic (nonisch) myocardium using the formulae defined in Example 4.
In each heart, non-ischemic myocardium and infarction were represented by a mean value from measurements in two slices.

Human blood samples = assay: In vitro MR imaging of contrast agent doped human blood samples, viable vs freeze-injured cells (Example 2); assay type: cell-based
Procedure: Human blood samples with different hematocrit readings (Ht) of 27%, 45% and 69% were prepared to provide sample models for different levels of compartmentalization between intracellular and extracellular fluids. To initiate cellular level injury, samples with these Ht readings were frozen to effect cell membrane destruction. Finally a control sample of cell free plasma was also used.
To the test samples were added (a) a positive ECF contrast agent (GdDTPA-BMA at a dosage corresponding to 0.2 mmol Gd/kg); (b) a negative ECF contrast agent (DyDTPA-BMA at a dosage corresponding to 0.6 mmol Dy/kg); and (c) a positive ECF contrast agent and a negative ECF contrast agent (GdDTPA-BMA and DyDTPA-BMA at dosages corresponding to 0.2 mmol Gd/kg and 0.6 mmol Dy/kg).
These doped samples, and controls to which no contrast agent was added, were imaged together at ambient temperature in the head coil of a Siemens Magnetom operating at 0.5 T using T1 -weighted (TR/TE 500/30 ms), T2 -weighted (TR/TE 1500/90 ms) and proton density-weighted (TR/TE 1500/30 ms) echo sequences. The signal intensity for each contrast agent doped sample was normalized to the corresponding undoped sample and the results are set forth as ratios in FIGS. 1 to 3 hereto, squares, circles and diamonds representing the ratios for T1 -weighted, PD-weighted and T2 -weighted sequences respectively.

[2] = test system: normal and infarcted myocardium; conditions: rat, in vivo
Procedure: Thirty seven Sprague Dawley rats (200-400 gm) were anaesthetized by an intraperitoneal injection of sodium pentobarbital (50 mg/kg body weight). After tracheostomy, animals were ventilated using a small animal respirator. The heart was exposed following a left thoracotomy through the 4th intercostal space and a surgical suture was used to ligate the anterior branch of the left coronary artery near its origin beneath the left atrial appendage using a snare ligature. The presence of occlusion was visually confirmed by noting the development of myocardial cyanosis. After 1 hour occlusion, reperfusion was initiated by loosening the snare ligature. A catheter was placed into a femoral vein to inject contrast media. All animals which received contrast agent were administered doses at 45 minutes of reflow. After 1 hour reperfusion, each heart was excised and rinsed in 0.9% saline, patted dry with gauze, and a cotton swab was inserted into the left ventricular cavity to expand the chamber. Each heart was wrapped in clear plastic wrap to minimise dehydration during imaging.
To group 1 rats (n=9) were administered 0.2 mmol/kg of GdDTPA-BMA immediately followed by 1.0 mmol/kg of DyDTPA-BMA. Group 2 (n=7) received no contrast agents. Two spin-echo images were obtained from the midventricle of each heart, a T1-weighted image with TR/TE=300/20 and NEX=4, and T2-weighted image with TR/TE=3000/60 and NEX=2. After imaging, each heart was sliced at the midventricular level and soaked in a 2% solution of TTC at 37° C. for 15 minutes to define myocardial infarction.
Samples of normal and infarcted myocardium were retained for analysis of Gd and Dy content by means of ICP-MS.

[3] = test system: infarcted and non-ischemic myocardium; conditions: pig, in vivo
Procedure: (§1) Myocardial infarction was induced in 5 anaesthetized pigs of either sex (weight 25-30 kg) by ligating a diagonal branch of the left anterior descending artery (LAD), at thoracotomy. Microdialysate probes were inserted in ischemic and non-ischemic myocardium. The pigs were sacrificed 2 hours after administration of contrast media. 4 hour post occlusion Gd-DTPA-BMA (0.3 mmol/kg) and Dy-DTPA-BMA (1.0 mmol/kg) were simultaneously administered in vivo with an injection time of one minute. The total occlusion time was thus 6 hours.
(§2) The microdialysate was collected every 10 minutes and measured for gadolinium and dysprosium using inductively coupled plasma atomic emission spectrometry (ICP-AES). The microdialysis equipment consisted of a CMA®/20 microdialysis probe with a 10 mm flexible membrane and a diameter of 0.5 mm (CMA AB, Stockholm, Sweden). […] The probe was perfused with a Krebs-Ringer phosphate buffer (pH 7.4) at a speed of 2 μl/min and a dead space, in the system, of 10 μl. […] One probe was inserted into the central part of the ischemic area and another probe was placed in non-ischemic myocardium in the lateral wall using the Seldinger technique to minimize mechanical injury to myocardium and probe membrane. A CMA® microdialysis pump (CMA 100) was used with two syringes to perfuse the probes.
(§3) In addition, gadolinium and dysprosium were determined in dialysates from five pigs by ICP-AES. Twenty μl portions were sampled in plastic tubes and kept frozen until analysis. The samples were diluted to 5.02 ml with ultra-pure water. To enhance the sensitivity of measurements, an ultrasonic nebulizer was used instead of the pneumatic one. The limit of detection for the method is about 2 μg/l for both gadolinium and dysprosium in the measuring solution. This means that about 3 μmol/l can be detected in the dialysates.

[4] = test system: infarcted and non-ischemic myocardium; conditions: pig, in vivo; remark: listed apart in the source
Procedure: as §1
The total amount of gadolinium and dysprosium in samples of infarcted and non-ischemic myocardium was quantified by ICP-AES.
Paired t-tests (two-tailed) were used to compare the gadolinium and dysprosium content, respectively, in infarcted and non-ischemic myocardium within the group. […] In addition, the extracellular concentrations of gadolinium and dysprosium were further compared with the content of gadolinium and dysprosium in tissue samples.

myocardial infarction = conditions: first positive, second negative agent, sequential; cited from earlier work
[5] = test system: normal and reperfused infarcted myocardium; assay: MR imaging and T2/T2* relaxation of rat hearts after single agents, protocol 2 (Example 6); assay type: in vivo, Sprague Dawley rats
Description: Images were acquired at room temprature using a GE CSI 2.0 T system. Each heart was positioned with its long axis parallel to the main magnetic field such that axial images would present short axis views of the heart. All images were obtained using a slice thickness of 2 mm, FOV of 30 mm, and a raw data matrix of 128×256 interpolated to 256×256 during reconstruction. TR/TE settings used for spin echo images are indicated below. Gradient echo images were obtained using a TR of 600 ms, with the radio frequency pulse power set very low such that no signal saturation was evident following multiple pulses and images would contain no T1 weighting.
Group 3 (n=11) received 1.0 mmol/kg DyDTPA-BMA, group 4 (n=7) received 0.2 mmol/kg of GdDTPA-BMA and group 5 (n=7) received no contrast agents. The imaging protocol for each heart consisted of spin echo T1-weighted (TR/TE=300/20 ms, NEX=4) and T2-weighted (TR/TE=4000/80 ms; NEX=2), a set of four-echo T2-weighted images (TR=4000 ms, TE=20, 40, 60 and 80 ms, NEX=2) for estimation of regional T2 values, and a set of gradient-recalled images (TE=10, 15, 20 and 30 ms, NEX=4) for estimation of region T2* values. TTC staining of the heart was performed to verify the presence of infarction.
Signal intensities were measured from ROIs selected over infarcted and uninfarcted myocardium. The same ROIs were applied to all images obained from each heart.
A series of gradient recalled and spin echo MR images were obtained to resolve the effects of GdDTPA-BMA on T2-weighted images and DyDTPA-BMA on T1-weighted images and also to more thoroughly characterize the differences in contrast media-induced T2 and T2* enhancement between infarcted and normal myocardium. Table III summarises the observed alterations in regional signal intensity and relaxation rates following administration of either GdDTPA-BMA or DyDTPA-BMA.

[6] = test system: infarcted and nonischemic myocardium; conditions: porcine model; cited from earlier work
[7] = test system: infarcted and non-ischemic myocardium; assay: Microdialysis kinetics of Gd and Dy in extracellular space of pig myocardium (Example 5)
Procedure: as §1, §2, §3

[8] = four-echo T2-weighted, TR=4000 ms
[9] = gradient recalled echo images, Dy 1.0 mmol/kg n=11 or Gd 0.2 mmol/kg n=7
[10] = gradient-recalled images, TE=10, 15, 20 and 30 ms
[11] = spin echo T1 weighted, TR/TE=300/20 ms
[12] = spin echo T2 weighted, TR/TE=4000/80 ms

With `CNC(=O)CN(CCN(CCN(CC(=O)[O-])CC(=O)NC)CC(=O)[O-])CC(=O)[O-].[Gd+3]` [GdDTPA-BMA, reference compound] as the molecule, how does the “infarction signal / visualization” value [1] read?
Its value is “enhanced infarction signal in the T1- and proton density-weighted sequences, resulting in improved infarction visualization”.

And the “signal intensity ratio (doped/undoped), T1-weighted” value (Human blood samples; T1-weighted TR/TE 500/30 ms, 0.5 T)?
Its value is “increased signal intensity effect”.

What about the “signal intensity ratio (doped/undoped), other sequences” value (Human blood samples; T2-weighted (1500/90) and proton density-weighted (1500/30)) of the same molecule?
Its value is “barely noticed in the other sequences”.

And the “discrimination between "viable" and "non-viable" samples” value (Human blood samples; all sequences)?
The value was “no significant discrimination”.

What about the “metal content in infarcted region vs normal myocardium” value [2] of the same molecule?
Its value is “commensurably greater content of gadolinium in that region than in normal myocardium”.

And the “concentration ratio, reperfused infarcted vs normal myocardium” value ([2]; 15 min)?
Its value is “approximately 2.5 fold”.

And the “time to plateau concentration in dialysate” value [3]?
The value was 20 to 30 min.

And the “time of early peak in dialysate” value ([3]; iv)?
Its value is ≤ 10 min.

What about the “concentration in infarcted vs non-ischemic myocardium” value [4] of the same molecule?
Its value is “more than threefold higher concentration”.

And the “distribution in infarcted heart” value (myocardial infarction)?
Its value is “distributed to the infarcted area of the heart”.

And the “differential enhancement of reperfused infarction, T1-weighted” value ([5]; T1-weighted images)?
The value was “significant differential enhancement”.

What about the “enhancement of infarcted region, single agent vs both agents” value ([5]; T1-weighted images) of the same molecule?
Its value is “significantly less than that noted when both agents were present”.

What about the “delineation of infarcted region, T2-weighted” value ([5]; T2-weighted images) of the same molecule?
The value was “delineated by both agents”.

And the “signal intensity of infarcted region, T2-weighted” value ([5]; T2-weighted images)?
The value was “significantly reduced compared to hearts with no contrast”.

What about the “signal intensity of normal region, T2-weighted” value ([5]; T2-weighted images) of the same molecule?
The value was “not different from that of hearts with no contrast”.

And the “T2, infarct” value [5, 8]?
Its value is 31.1 ± 1.2 ms.

And the “T2, normal myocardium” value [5, 8]?
The value was 34.7 ± 0.7 ms.

And the “GRE signal intensity, infarct” value [5, 9]?
Its value is 185 ± 49.

What about the “GRE signal intensity, normal myocardium” value [5, 9] of the same molecule?
The value was 200 ± 40.

And the “T2*, infarct” value [5, 10]?
Its value is 13.2 ± 1.5 ms.

And the “T2*, normal myocardium” value [5, 10]?
The value was 17.1 ± 2.2 ms.

What about the “SE T1 signal intensity, infarct” value [5, 11] of the same molecule?
The value was 350 ± 34.

And the “SE T1 signal intensity, normal myocardium” value [5, 11]?
Its value is 184 ± 21.

What about the “SE T2 signal intensity, infarct” value [5, 12] of the same molecule?
Its value is 35 ± 7.

What about the “SE T2 signal intensity, normal myocardium” value [5, 12] of the same molecule?
The value was 42 ± 4.

What about the “distribution / enhancement in 6-hour-old myocardial infarction” value [6] of the same molecule?
Its value is “infarct accumulation”.

What about the “concentration course in dialysate” value ([7]; infarcted myocardium) of the same molecule?
Its value is “increased gradually”.

And the “duration of plateau in dialysate” value ([7]; infarcted myocardium)?
Its value is 60 min.

What about the “concentration in dialysate after early peak” value ([7]; non-ischemic myocardium) of the same molecule?
The value was “diminished with time”.
